# From patent US8426429B2, “2-amino-quinazoline derivatives useful as inhibitors of β-secretase (BACE)” (Jansssen Pharmaceutica N.V., priority 2004, dated 2013)
# Values joined by “and” are separate entries in the source; they are usually repeats but may differ in a detail not shown here. Identical values can stand only once.
# Assays:
# Assay type in all cases: biochemical
# [1] = biological target: T1, β-secretase (BACE) (Homo sapiens, UniProt P56817); assay: BACE Assay-1 (MCA-substrate, IC50); details: procedure of Example 158
# T1 construct: purchased Panvera
# Procedure: The following standards are reagents were used in this assay: Sodium Citrate trisodium salt dihydrate (Sigma), Citric Acid monohydrate (Merck), PEG8000 (Sigma), MCA-substrate (Bachem), β-secretase (BACE) (Panvera), 96-well plate zwart (Costar (Elscolab)), StatVal (Bachem).
# The following standard assay buffer solution was prepared and used in this assay: 0.05 M, pH 5.0 mixture of sodium citrate trisodium salt dihydrate (9.56 g), citric acid monohydrate (3.68 g) and PEG8000 (0.50 g).
# The MCA-substrate stock solution was prepared by mixing 10 mg MCA-substrate with 5 mL DMSO for a final solution concentration of 2.0 mg/mL. The substrate work solution was prepared by mixing 0.1 mL substrate in 1.90 mL assay buffer for a final concentration of 0.05 mM. The β-secretase (BACE) work solution was prepared by mixing 8 μL BACE in 2 mL assay buffer for a final concentration of 10 µg/mL.
# The screen procedure for this assay was as follows. 60 μL of assay buffer was pippeted into each well of a 96-well plate. To each well was then pipetted 1 μL of test compound at the selected concentration. To each well was then added 20 μL of the β-secretase work solution and […] of the MCA-substrate stock solution.
# The procedure for the blank was as follows. 80 μL of assay buffer was pipetted into each well to be used as a blank control. To each well was then added 1 μL of DMSO and 20 μL of MCA-substrate solution in each well.
# The procedure for the positive control was as follows. 60 μL of assay buffer was pipetted into each well to be used as a positive control. To each well was then added 1 μL of DMSO, 20 μL of BACE work solution and 20 μL of MCA-substrate stock solution.
# For test compounds, measured at multiple concentrations, the measured T0 and T60 values were used to calculate an IC50 value using Graphpad Software (or PIR).
# [2] = biological target: T1, β-secretase (BACE); assay: BACE Assay-2 (FS1 substrate, IC50 and Ki); details: procedure of Example 159, FS1 substrate
# Procedure: (§1) The FS1-substrate stock solution was prepared in DMSO as a 10 mg/mL solution. The FS1-substrate working solution was prepared by diluting the 10 mg/mL stock solution with substrate assay buffer to a final concentration of […]. The β-secretase (BACE) working solution was prepared by diluting a 0.83 mg/mL BACE stock solution with enzyme assay buffer to a final concentration of 4 μg/mL.
# Test compounds were dissolved in DMSO at 10 mM.
# (§2) The procedure for this assay was as follows: 15 μL of BACE working solution was pipetted into each well of a 96-well plate. To each well was then pipetted 2 μL of test compound at the selected concentration. Test compound and BACE were then mixed with a pipettor and incubated for 20 min at room temperature. To each well was then added 10 μL of the FS1 substrate working solution.
# (§3) The procedure for the positive control was as follows:15 μL of BACE working solution was pipetted into each well to be used as a positive control. To each well was then pipetted 2 μL of vehicle. Vehicle and BACE were then mixed with a pipettor and incubated for 20 min at room temperature. To each well was then added 10 μL of the FS1 substrate working solution.
# For test compounds, measured at multiple concentrations, the measured T0 and T60 values were used to calculate an IC50 value using Graphpad Software (or PIR). For test compounds, Ki inhibition was determined as follows: For each compound concentration and positive control, rate of cleavage of substrate (Vi, where i=compound concentration in μM) was determined as Δ Fluorescence/Δ time (min). Cleavage rates (Vi) were plotted as a function of inhibitor concentration in μM [I]. The Ki was then determined by fitting the following equation to the graph of [I] vs Vi Y=aVmax/(50+24*(1+X/Ki)),
# [3] = biological target: T1, β-secretase (BACE); assay: BACE % Inhibition Assay ((Aedens)-[…]-(Dabcyl K-amide) substrate); details: % error ±10%; for inhibition at 3 µM: 3 μM compound; for inhibition at 10 µM: 10 μM compound
# Procedure: as §1, with “substrate” for “FS1-substrate”
# Test compounds were dissolved in DMSO to 10 mM.
# as §2, with “The screening” for “The”, “the” for “the FS1”, “solution. The plates were then incubated for 1 hour at room temperature.” for “solution.”
# The procedure for the blank was as follows. 15 μL of assay buffer was pipetted into each well to be used as a blank control. To each well was then added 2 μL of vehicle and 10 μL of substrate working solution. The plates were then incubated for 1 hour at room temperature.
# as §3, with “follows: 15 μl” for “follows:15 μL”, “the” for “the FS1”, “solution. The plates were the incubated for 1 hour at room temperature.” for “solution.”
# For test compounds, % inhibition was determined at each concentration as follows: […]
# [4] = biological target: T1, β-secretase (BACE); assay: BACE FS1 % Inhibition Assay; details: read-out: % Inhibition (FS); for inhibition at 0.3 µM: 0.3 μM test compound; for inhibition at 1 µM: 1 μM test compound; for inhibition at 3 µM: 3 μM test compound
# Outline: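 Percent inhibition per compound concentration was referenced to vehicle-treated enzyme and no-enzyme wells. Enzyme at a 4 μg/mL working stock plus compound was mixed for 20 min at room temperature before the FS1 substrate (300 μg/mL working stock) was added for a 1 h room-temperature reaction.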
# T1 sequence (P56817 46-501): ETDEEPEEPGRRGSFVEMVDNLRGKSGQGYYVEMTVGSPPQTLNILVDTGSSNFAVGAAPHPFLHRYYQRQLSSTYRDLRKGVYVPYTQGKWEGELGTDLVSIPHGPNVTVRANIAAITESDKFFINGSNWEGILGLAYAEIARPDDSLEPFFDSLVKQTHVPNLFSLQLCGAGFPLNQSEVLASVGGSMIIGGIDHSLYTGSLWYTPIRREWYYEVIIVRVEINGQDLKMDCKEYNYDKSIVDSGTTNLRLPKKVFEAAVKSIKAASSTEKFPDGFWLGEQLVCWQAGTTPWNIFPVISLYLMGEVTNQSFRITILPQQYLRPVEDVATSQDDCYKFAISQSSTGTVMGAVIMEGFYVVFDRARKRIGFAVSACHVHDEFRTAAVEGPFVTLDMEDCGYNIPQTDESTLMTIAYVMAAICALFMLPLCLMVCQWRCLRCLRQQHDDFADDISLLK
IC50 [1],Ki [2],inhibition at 3 µM [3],inhibition at 10 µM [3],inhibition at 0.3 µM [4],inhibition at 1 µM [4],inhibition at 3 µM [4],Structure (SMILES),IC50 [2]
6.1 µM,3.3 µM,< 30%,31%,–,–,–,CCCN1Cc2cc(Oc3cccc(NC(=O)C4CCCCC4)c3)ccc2N=C1N [Compound 44],–
0.97 µM,0.77 µM,35%,79%,–,–,–,CCCN1Cc2cc(Oc3cccc(N(C#N)CC4CCCCC4)c3)ccc2N=C1N [Compound 56],5.4 µM
0.048 µM,0.13 µM,72%,80%,–,–,–,CCCC(CCC(=O)N(C)C1CCCCC1)N1Cc2cc(Oc3ccccc3)ccc2N=C1N (centres unmarked) [Compound 86],–
0.016 µM,0.03 µM,–,–,79%,106%,116%,NC1=Nc2ccc(Oc3ccccc3)cc2CN1C(CNC(=O)C1CCCC1)C1CCCCC1 (centres unmarked) [Compound 295],–
0.14 µM,0.29 µM,–,–,< 30%,< 30%,95%,CSc1ccccc1-c1ccc2c(c1)CN(Cc1cccc(C(=O)N(C)C3CCCCC3)c1)C(N)=N2 [Compound 322],–
2.8 µM,–,–,–,–,–,–,CCCN1Cc2cc(Oc3cccc(CNCCCc4ccccc4)c3)ccc2N=C1N [Compound 430],–
1.3 µM,–,–,–,–,–,–,CCCN1Cc2cc(Oc3cccc(CN(C)Cc4c(C)cc(C)cc4C)c3)ccc2N=C1N [Compound 464],–
1.1 µM,0.74 µM,–,–,< 30%,< 30%,62%,NC1=Nc2ccc(Oc3ccccc3)cc2CN1[C@H](CNC(=O)C1CCCCC1)C1CCCCC1 [Compound 484],–
0.03 µM,0.018 µM and 0.0075 µM,–,–,106%,115%,128%,COc1ccccc1-c1ccc2c(c1)CN([C@@H](CCC(=O)N(C)C1CCCCC1)C1CCCCC1)C(N)=N2 [Compound 506],–
0.17 µM,–,–,–,–,–,–,CCCN1Cc2cc(Oc3cccc(CNC(=O)c4c(C)cc(C)cc4C)c3)ccc2N=C1N [Compound 533],–

Structure (SMILES),IC50 [1],Ki [2],inhibition at 3 µM [3],inhibition at 10 µM [3],inhibition at 0.3 µM [4],inhibition at 1 µM [4],inhibition at 3 µM [4],IC50 [2]
"CN(C(=O)CC(CC(=O)N(C)C1CCCCC1)N1Cc2cc(Oc3ccccc3)ccc2N=C1N)C1CCCCC1 [Compound 107, 3-(2-Amino-6-phenoxy-4H-quinazolin-3-yl)-pentanedioic acid bis-(cyclohexyl-methyl-amide)]",0.82 µM,1.2 µM,48%,78%,–,–,–,4.58 µM
